Measured values from patent US11103520B2, “Analogs of N-acetlyglucosamine and uses thereof” (THE REGENTS OF THE UNIVERSITY OF CALIFORNIA, priority 2014, dated 2021).
“Also recorded” adds a separate entry of the source.

Legend:
[1] = cited from earlier work
humans = conditions: supplement use for many years; cited from earlier work
animals = conditions: in vivo; cited from earlier work
[2] = tested on: mice immunized with MOG 35-55 peptide; assay: Oral GlcNAc in mice immunized with MOG 35-55 peptide, splenocytes re-stimulated in culture; format: in vivo, mouse
Method: The data plotted in FIG. 6A was obtained from experiments in which splenocytes were isolated from mice and cultured in vitro with the indicated concentrations of GlcNAc under resting or activated (1000 ng/ml anti-CD3) conditions for 3 days, stained with L-PHA-FITC in triplicate, and analyzed by FACS. The data plotted in FIGS. 6B-6E were obtained from experiments in which mice were immunized with the indicated amounts of MOG 35-55 peptide emulsified in Complete Freund's adjuvant and treated with GlcNAc at the same time by supplementing their drinking water at 0.25 mg/ml GlcNAc and control mice that were immunized with the indicated amounts of MOG 35-55 peptide but not treated with GlcNAc. […] Although not wishing to be bound by any particular theory, the reduction in CD25^+T cell blasts at the highest antigen concentrations is consistent with the explanation that the reduction is secondary to the observed increase in cell death, consistent with antigen-induced cell death at high antigen stimulation levels.

myelin-reactive T cells = conditions: T cells treated in vitro, transferred into naïve mice; cited from earlier work
C57BL/6 mice = assay: EAE in C57BL/6 mice, oral GlcNAc after disease onset; format: in vivo, mouse
Method: FIG. 7A is a graph that plots mean clinical EAE score as a function of days after disease onset for control and treated groups of mice. […] Error bars in FIGS. 7A and 7D represent the means±S.E. of duplicate or greater values unless otherwise stated.
The data plotted in FIG. 7A was obtained from experiments in which EAE was induced in C57BL/6 mice by immunization with MOG 35-55 peptide emulsified in Complete Freund's adjuvant and pertussis toxin. GlcNAc mice were treated orally with GlcNAc by supplementing the drinking water at 0.25 mg/ml starting on the second day after disease onset and continued for the duration of the study and control mice were given drinking water not supplemented with GlcNAc (n=9 per control group, n=7 per GlcNAc group). Day 1 indicates the first day of disease onset. Mice were examined daily for clinical signs of EAE over the next 30 days with the observer blinded to treatment conditions and scored daily as follows: 0, no disease; 1, loss of tail tone; 2, hindlimb weakness; 3, hindlimb paralysis; 4, forelimb weakness or paralysis and hindlimb paralysis; 5, moribund or dead. Mean clinical scores per group daily were compared by the Mann-Whitney U test. […] Error bars in FIGS. 7A and 7D represent the means±S.E. of duplicate or greater values unless otherwise stated.

human T cells [3] = assay: CD25 and CD69 expression in human T cells stimulated with α-CD3; format: cell-based; conditions: FIG. 11
Text: FIG. 12A is a graph that plots CD25 expression (%) in human T cells as a function of α-CD3 and GlcNAc/GlcNAc 6-acetate concentrations. FIG. 12B is a graph that plots CD69 expression (%) in human T cells as a function of α-CD3 and GlcNAc/GlcNAc 6-acetate concentrations.

[4] = tested on: peripheral blood mononuclear cells; conditions: induced by MS-associated MGAT1 variant; cited from earlier work
human T cells [5] = assay: N-glycan branching (L-PHA) in human T cells; format: cell-based; conditions: PMA/Ionomycin stimulation, FIG. 9 and FIG. 10
Text: Relative L-PHA (%) in human T cells is plotted as a function of PMA/Ionomycin stimulation and GlcNAc/GlcNAc-diacetate concentrations.
Relative L-PHA (%) in human T cells is plotted as a function of PMA/Ionomycin stimulation and GlcNAc/GlcNAc-monoacetate concentrations.

N-glycan branching = conditions: in vitro; cited from earlier work
[6] = tested on: pediatric treatment-resistant inflammatory bowel disease patients; conditions: oral GlcNAc; remission for approximately 2 years; cited from earlier work
non-obese diabetic mice = conditions: oral, initiated prior to disease onset; cited from earlier work
2D2 TCR transgenic mice = assay: EAE in 2D2 TCR transgenic mice, oral GlcNAc after disease onset; format: in vivo, mouse; conditions: oral 0.25 mg/ml after onset
Text: Day 1 indicates the first day of disease onset. […] Mean clinical scores per group daily were compared by the Mann-Whitney U test.

mouse T cells = assay: Mouse splenocyte cultures (L-PHA, CD69, CFSE proliferation); format: cell-based; conditions: splenocytes, anti-CD3 1 μg/mL; FIG. 15
Method: FIG. 15A is a graph illustrating splenocytes from C57/BL6 female (n=6, 8-24 weeks old) or male (n=5, 10-13 weeks old) mice after culturing in the presence of anti-CD3 (1 μg/mL). Cells were collected on day 3, and labeled for FACS analysis. FIG. 15B is a series of graphs illustrating in vitro cultures of splenocytes either un-stimulated (resting) or anti-CD3 (1 μg/mL) activated. G-6-A (20 mM) and or GlcNAc (40 mM). Cells were harvested over a three-day time course, and labeled for FACS analysis. FIG. 15C is a graph illustrating in vitro stimulated splenocytes (anti-CD3 at 1 μg/mL) that were cultured for three-days and labeled for FACS analysis of the T cell activation marker CD69 at the time points indicated. […] Splenocytes were labeled with 1 uM of CFSE prior to in vitro anti-CD3 (1 μg/mL) activation for three-days. Overlaying histograms is on gated CD4+ cells.
Cells were collected on day 3, and labeled for FACS analysis. Data shown is on gated CD4^+ cells, and percent changes of L-PHA MFI were normalized to a media only control.
G-6-A (20 mM) and or GlcNAc (40 mM). Cells were harvested over a three-day time course, and labeled for FACS analysis. Data shown is on gated CD4^+ cells, and percent changes of L-PHA MFI were normalized to a media only control.
Data shown is on gated CD4^+ cells. […]

[7] = tested on: C57/BL6 mice immunized with MOG35-55 peptide; assay: Oral treatment, N-glycan branching in mouse T cells in vivo; conditions: 1 mg/mL in drinking water, five days post immunization, CD4+ blasts
Method: Ten-week old female C57/BL6 were immunized with 100 μg of MOG35-55 peptide in a 1:1 mixture with CFA. Groups were non-immunized (n=2), immunized and given drinking water alone (n=3), immunized and given GlcNAc at 1 mg/mL in drinking water (n=3), or immunized and given G-6-A at 1 mg/mL in drinking water (n=3). Splenocytes were harvested five days post immunization, and labeled for FACS analysis. For GlcNAc and G-6-A treated groups, each mouse drank an average of 3 mL per day. Data shown is gated on a blasting region on CD4^+ cells.

[8] = oral, 0.25 mg/ml in drinking water, 14 days, vs control mice

Question: Which results are given for `CC(=O)N[C@@H](C=O)[C@@H](O)[C@H](O)[C@H](O)CO` [GlcNAc, 2-(acetylamino)-2-deoxy-D-glucose]?
Answer: membrane permeability [1]: low membrane permeability (poor cell entry); adverse effects in humans (humans): without reported adverse effects; toxicity in chronic animal studies (animals): no associated toxicity; secretion of Th1 (IFN-γ, TNF-α) and Th17 (IL-17, IL-22) cytokines ([2]; oral treatment in vivo, re-stimulation with MOG 35-55 in vitro): inhibited secretion of Th1 cytokines (IFN-γ and TNF-α) and Th17 cytokines (IL-17 and IL-22); CD4+CD25+FoxP3+ regulatory T cells [2, 8]: promoted development of CD4^+CD25^+FoxP3^+ regulatory T cells; CD25+ T cells upon re-stimulation with MOG 35-55 peptide [2, 8]: reduced CD25^+T cells; EAE after adoptive transfer of treated T cells (myelin-reactive T cells): inhibited EAE when these cells were adoptively transferred into naïve mice; clinical course of EAE (mean clinical score) (C57BL/6 mice; C57BL/6 mice, oral 0.25 mg/ml in drinking water from second day after onset): attenuates the clinical course of experimental autoimmune encephalomyelitis (EAE); production of pro-inflammatory cytokines IFN-γ, TNF-α, IL-17, IL-22 (C57BL/6 mice; re-stimulation with MOG 35-55 peptide in vitro): inhibited production of pro-inflammatory cytokines IFN-γ, TNF-α, IL-17, and IL-22; N-glycan branching in T cells (L-PHA staining) (C57BL/6 mice; representative mice at peak of disease): increased N-glycan branching in T cells; CD25+ T cells (C57BL/6 mice; representative mice at peak of disease, vs control mice): significant reduction in CD25^+T cells; CD25 expression (%) (human T cells [3]): N-acetylglucosamine 6-acetate inhibits CD25 and CD69 expression to greater effect than GlcNAc; CD69 expression (%) (human T cells [3]): N-acetylglucosamine 6-acetate inhibits CD25 and CD69 expression to greater effect than GlcNAc; N-glycan branching deficiency and T cell hyper-proliferation [4]: rescued N-glycan branching deficiency and T cell hyper-proliferation; N-glycan branching (Relative L-PHA (%)) (human T cells [5]): increases N-glycan branching to greater effect than N-acetylglucosamine-diacetate compounds; also recorded: N-acetylglucosamine 6-acetate increases N-glycan branching to greater effect than GlcNAc; N-glycan branching with increasing concentration (N-glycan branching): only enhance N-glycan branching; children in clinical remission [6]: 8 of 12; spontaneous autoimmune diabetes (non-obese diabetic mice): suppress spontaneous autoimmune diabetes; clinical course of EAE, moderate-severe disease (2D2 TCR transgenic mice; 2D2 TCR transgenic mice scored ≤4): attenuates the clinical course of EAE in moderate-severe disease; clinical course of EAE, lethal disease (2D2 TCR transgenic mice; 2D2 TCR transgenic mice with scores of 5): not disease with rapid lethal progression

Question: With `CC(=O)N[C@H]1C(OC(C)=O)O[C@H](COC(C)=O)[C@@H](OC(C)=O)[C@@H]1OC(C)=O` (stereo partly shown) [GlcNAc-tetraacetate, N-acetylglucosamine tetraacetate] as the molecule, how does the membrane permeability [1] read?
Answer: increased membrane permeability as compared with GlcNAc

Question: For `CC(=O)N[C@H]1C(O)O[C@H](CO)[C@@H](OC(C)=O)[C@@H]1OC(C)=O` (stereo partly shown) [N-acetylglucosamine 3,4 diacetate], which “N-glycan branching (Relative L-PHA (%))” value (human T cells [5]) is on record?
Answer: GlcNAc increases N-glycan branching to greater effect than N-acetylglucosamine-diacetate compounds

Question: Which “N-glycan branching (Relative L-PHA (%))” value (human T cells [5]) does the source give for `CC(=O)N[C@H]1C(O)O[C@H](COC(C)=O)[C@@H](O)[C@@H]1OC(C)=O` (stereo partly shown) [N-acetylglucosamine 3,6 diacetate] here?
Answer: GlcNAc increases N-glycan branching to greater effect than N-acetylglucosamine-diacetate compounds

Question: Which “N-glycan branching (Relative L-PHA (%))” value (human T cells [5]) does the source give for `CC(=O)N[C@H]1C(O)O[C@H](CO)[C@@H](O)[C@@H]1OC(C)=O` (stereo partly shown) [N-acetylglucosamine 3-acetate] here?
Answer: N-acetylglucosamine 6-acetate increases N-glycan branching to greater effect than GlcNAc or N-acetylglucosamine 3-acetate

Question: With `CC(=O)N[C@H]1C(O)O[C@H](COC(C)=O)[C@@H](OC(C)=O)[C@@H]1O` (stereo partly shown) [N-acetylglucosamine 4,6 diacetate] as the molecule, how does the “N-glycan branching (Relative L-PHA (%))” value (human T cells [5]) read?
Answer: GlcNAc increases N-glycan branching to greater effect than N-acetylglucosamine-diacetate compounds

Question: What does the source list for `CC(=O)N[C@H]1C(O)O[C@H](COC(C)=O)[C@@H](O)[C@@H]1O` (stereo partly shown) [N-acetylglucosamine 6-acetate]?
Answer: CD25 expression (%) (human T cells [3]): inhibits CD25 and CD69 expression to greater effect than GlcNAc; CD69 expression (%) (human T cells [3]): inhibits CD25 and CD69 expression to greater effect than GlcNAc; effectiveness in mouse T cells (mouse T cells): more effective than GlcNAc in mouse T cells; N-glycan branching (Relative L-PHA (%)) (human T cells [5]): increases N-glycan branching to greater effect than GlcNAc or N-acetylglucosamine 3-acetate; N-glycan branching in mouse T cells in vivo [7]: increases N-glycan branching in mouse T cells in vivo

Question: For `N[C@H]1C(O)O[C@H](CO)[C@@H](O)[C@@H]1O` (stereo partly shown) [glucosamine], which “N-glycan branching with increasing concentration” value (N-glycan branching) is on record?
Answer: initially increasing but subsequently decreasing N-glycan branching
